Results reported in ChEMBL document CHEMBL3853265 (Medchemcomm, 2016).
pIC50: −log10 of the molar value.

Assays:
[1] = system: P-gp; test: Substrate activity at p-gp (unknown origin) assessed as efflux ratio of permeability; assay type: ADME; details: human, not told
[2] = biological target: T1, Cytochrome P450 1A2 (Homo sapiens, UniProt P05177); test: Inhibition of CYP1A2 (unknown origin); assay type: ADME
T1 sequence (P05177 whole entry): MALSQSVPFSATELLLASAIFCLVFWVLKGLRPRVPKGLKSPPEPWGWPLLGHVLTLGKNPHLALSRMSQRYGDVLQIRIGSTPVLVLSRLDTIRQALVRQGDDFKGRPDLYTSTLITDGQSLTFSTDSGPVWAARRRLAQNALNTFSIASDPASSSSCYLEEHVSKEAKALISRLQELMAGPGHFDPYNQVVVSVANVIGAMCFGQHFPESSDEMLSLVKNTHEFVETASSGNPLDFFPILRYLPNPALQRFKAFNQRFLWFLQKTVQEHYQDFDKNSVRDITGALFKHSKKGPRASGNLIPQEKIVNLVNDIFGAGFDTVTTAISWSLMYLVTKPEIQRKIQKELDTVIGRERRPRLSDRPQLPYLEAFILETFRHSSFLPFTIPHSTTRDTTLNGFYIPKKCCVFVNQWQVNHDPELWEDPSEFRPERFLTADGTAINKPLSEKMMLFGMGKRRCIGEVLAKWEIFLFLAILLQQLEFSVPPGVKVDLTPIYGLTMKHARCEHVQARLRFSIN

[3] = biological target: T2, Cytochrome P450 2C8 (Homo sapiens, UniProt P10632); test: Inhibition of CYP2C8 (unknown origin); assay type: ADME
T2 sequence (P10632 whole entry): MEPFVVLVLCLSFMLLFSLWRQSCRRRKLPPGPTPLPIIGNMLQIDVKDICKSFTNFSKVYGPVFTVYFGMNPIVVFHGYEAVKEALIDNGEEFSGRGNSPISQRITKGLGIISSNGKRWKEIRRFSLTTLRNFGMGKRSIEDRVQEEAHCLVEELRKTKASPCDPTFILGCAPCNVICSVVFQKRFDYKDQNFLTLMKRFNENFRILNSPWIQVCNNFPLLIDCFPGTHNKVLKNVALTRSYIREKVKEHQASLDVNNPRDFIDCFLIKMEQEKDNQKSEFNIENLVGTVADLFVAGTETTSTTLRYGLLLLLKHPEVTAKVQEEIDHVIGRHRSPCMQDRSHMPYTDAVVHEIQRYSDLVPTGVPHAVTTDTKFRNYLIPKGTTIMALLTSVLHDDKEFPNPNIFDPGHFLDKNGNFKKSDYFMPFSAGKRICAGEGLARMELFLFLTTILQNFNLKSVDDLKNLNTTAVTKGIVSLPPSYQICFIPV

[4] = biological target: Cytochrome P450 3A4 (Homo sapiens, UniProt P08684); test: Inhibition of CYP3A4 (unknown origin); assay type: ADME
[5] = biological target: T3, Solute carrier family 22 member 6 (Homo sapiens, UniProt Q4U2R8); test: Inhibition of OAT1 (unknown origin)
T3 sequence (Q4U2R8 whole entry): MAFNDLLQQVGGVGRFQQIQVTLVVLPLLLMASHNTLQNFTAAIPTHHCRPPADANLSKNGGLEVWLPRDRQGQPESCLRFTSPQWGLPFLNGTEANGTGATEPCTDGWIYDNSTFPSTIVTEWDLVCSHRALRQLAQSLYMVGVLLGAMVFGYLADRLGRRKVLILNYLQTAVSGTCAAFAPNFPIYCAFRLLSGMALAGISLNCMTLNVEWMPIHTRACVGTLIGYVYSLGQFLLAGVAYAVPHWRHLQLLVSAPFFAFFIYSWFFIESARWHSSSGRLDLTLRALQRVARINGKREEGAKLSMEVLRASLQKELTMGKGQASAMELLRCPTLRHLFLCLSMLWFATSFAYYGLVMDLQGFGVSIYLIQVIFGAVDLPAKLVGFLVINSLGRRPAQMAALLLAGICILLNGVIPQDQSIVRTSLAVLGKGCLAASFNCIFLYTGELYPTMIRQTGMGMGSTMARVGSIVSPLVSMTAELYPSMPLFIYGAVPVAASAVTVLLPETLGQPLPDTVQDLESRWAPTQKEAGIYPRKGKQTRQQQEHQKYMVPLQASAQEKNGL

[6] = Volume of distribution at steady state in dog at 0.363 mg/kg, iv and 0.737 mg/kg, po; assay type: ADME, organism-based, Canis lupus familiaris; details: in vivo, read-out: Vdss
[7] = Oral bioavailability in dog at 0.737 mg/kg; assay type: ADME, organism-based, Canis lupus familiaris; details: in vivo
[8] = Drug metabolism in human liver microsomes assessed as monooxidation at phenyl and pyridine moieties; assay type: ADME
[9] = Drug metabolism in rat liver microsomes assessed as monooxidation at phenyl and pyridine moieties; assay type: ADME
[10] = Drug metabolism in dog liver microsomes; assay type: ADME, Canis lupus familiaris
[11] = Drug metabolism in human hepatocytes assessed as monooxidation; assay type: ADME, cell-based, Hepatocyte
[12] = Drug metabolism in human hepatocytes assessed as monooxidation and glucuronidation; assay type: ADME, cell-based, Hepatocyte
[13] = Drug metabolism in dog hepatocytes; assay type: ADME, cell-based, Canis lupus familiaris, Hepatocyte
[14] = system: Rattus norvegicus; test: Toxicity in Wistar Han rat assessed as increase in lymphocyte counts at >= 30 mg/kg/day, po administered for 14 days; assay type: organism-based; details: in vivo, 336 h
[15] = system: Rattus norvegicus; test: Toxicity in Wistar Han rat assessed as increase in liver weight at >= 30 mg/kg/day, po administered for 14 days; assay type: organism-based; details: in vivo, 336 h
[16] = system: Rattus norvegicus; test: Toxicity in Wistar Han rat assessed as centrilobular hepatocyte hypertrophy at 100 mg/kg/day, po administered for 14 days; assay type: organism-based; details: hepatocytes, 336 h
[17] = Unbound Cmax in Wistar Han rat at 10 mg/kg, po […] measured on day 14; assay type: ADME, organism-based; details: in vivo
[18] = Average plasma concentration in Wistar Han rat at 10 mg/kg, po administered as single dose measured on day 14; assay type: ADME, organism-based; details: in vivo
[19] = Toxicity in dog assessed as increase in body temperature at 100 mg/kg, po administered as single dose; assay type: organism-based, Canis lupus familiaris; details: in vivo
[20] = Toxicity in dog assessed as transient panting at 10 mg/kg, po administered as single dose measured up to 30 hrs post dose; assay type: organism-based, Canis lupus familiaris; details: in vivo
[21] = Toxicity in dog assessed as increase in body temperature at 10 mg/kg, po administered as single dose measured up to 3 days post dose; assay type: organism-based, Canis lupus familiaris; details: in vivo, 72 h
[22] = Toxicity in dog assessed as increase in body temperature at 30 mg/kg, po administered as single dose; assay type: organism-based, Canis lupus familiaris; details: in vivo
[23] = Toxicity in dog assessed as uncontrollable panting at 30 mg/kg, po administered as single dose; assay type: organism-based, Canis lupus familiaris; details: in vivo
[24] = Plasma clearance in dog at 1 mg/kg, iv and 3 mg/kg, po; assay type: ADME, organism-based, Canis lupus familiaris
[25] = Half life in dog at 1 mg/kg, iv and 3 mg/kg, po; assay type: ADME, organism-based, Canis lupus familiaris; details: in vivo
[26] = system: Rattus norvegicus; test: Toxicity in Wistar Han rat assessed as centrilobular hepatocellular hypertrophy at 100 mg/kg/day, po administered for 14 days; assay type: organism-based; details: in vivo, 336 h
[27] = system: Rattus norvegicus; test: Toxicity in Wistar Han rat assessed as moribundity at 300 mg/kg, po administered as single dose; assay type: organism-based; details: in vivo
[28] = system: Rattus norvegicus; test: Toxicity in Wistar Han rat assessed as mortality at 300 mg/kg, po administered as single dose; assay type: organism-based; details: in vivo
[29] = Average plasma concentration in Wistar Han rat at 100 mg/kg, po administered as single dose measured on day 14; assay type: ADME, organism-based; details: in vivo

Sequence of Cytochrome P450 3A4 (P08684 whole entry): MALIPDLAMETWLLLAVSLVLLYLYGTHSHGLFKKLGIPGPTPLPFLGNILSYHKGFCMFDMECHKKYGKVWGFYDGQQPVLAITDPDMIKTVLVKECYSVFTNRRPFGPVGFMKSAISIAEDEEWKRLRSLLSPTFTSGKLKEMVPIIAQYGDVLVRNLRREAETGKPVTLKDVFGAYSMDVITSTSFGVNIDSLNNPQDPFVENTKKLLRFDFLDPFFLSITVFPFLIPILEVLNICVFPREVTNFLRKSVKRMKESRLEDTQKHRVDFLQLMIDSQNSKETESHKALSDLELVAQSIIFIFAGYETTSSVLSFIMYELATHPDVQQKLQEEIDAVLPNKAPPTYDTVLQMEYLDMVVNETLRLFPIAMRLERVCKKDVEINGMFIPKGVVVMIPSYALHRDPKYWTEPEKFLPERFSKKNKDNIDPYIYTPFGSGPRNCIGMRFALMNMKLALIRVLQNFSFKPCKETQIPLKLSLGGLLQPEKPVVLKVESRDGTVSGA

O=S(=O)(Nc1ccc(C(F)(F)F)nc1)c1ccccc1C(F)(F)F
efflux ratio [1]: 1.1
pIC50 [2]: < 4.52
pIC50 [3]: < 4.52
pIC50 [4]: < 4.52
pIC50 [5]: 4.91
Vd [6]: 0.12 L/kg
bioavailability [7]: 104%
Drug metabolism [8]: Metabolite_Detected
Drug metabolism [9]: Metabolite_Detected
Drug metabolism [10]: Metabolite_Notdetected
Drug metabolism [11]: Metabolite_Detected
Drug metabolism [12]: Metabolite_Detected
Drug metabolism [13]: Metabolite_Notdetected
Activity [14]: Non-Toxic
Activity [15]: Non-Toxic
Activity [16]: Non-Toxic
fCmax [17]: 530 nM
Cave [18]: 422 nM
Activity [19]: Toxic
Activity [20]: Toxic
Activity [21]: Toxic
deltaT [22]: > 1.1 °C
Activity [23]: Toxic

O=S(=O)(Nc1cncc(C(F)(F)F)c1)c1ccccc1C(F)(F)F
pIC50 [5]: 5.03
clearance [24]: 1 mL/min/kg
half-life [25]: 2.4 h
Activity [26]: Non-Toxic
Activity [27]: Toxic
Activity [28]: Toxic
Cave [29]: 807 nM
